Patent US20180055835A1, “Method for Treating And Preventing Protozoal Infections” (priority 2016, published 2018)

Tests used:
[1] = target: Leishmania donovani topoisomerase I (LdTOPILS); conditions: inhibitor of LdTOPILS; Roy A., et al., Biochemical Journal 2007; cited from earlier work
[2] = tested on: Py13XL malaria; assay: Anti-malaria effect (treatment) with naltrexone in infected mice; format: in vivo, BABL/C mice; conditions: for mice died: on 5 d
Description: (§1) • 45 BABL/C mice, six weeks old, were divided into 5 groups, 9 mice for each group. […] The survival was recorded from the third day of infection and infected rate of malaria are recorded by taking tail vein blood, smearing glass slide, Gimsa staining and checking parasitemia under microscope. • Finally changes of immune parameters in peripheral blood were measured by flow cytometry technology and made comparison to control.

[3] = tested on: immune cells in peripheral blood; assay: Changes of immune parameters in peripheral blood post treatment, flow cytometry; format: in vivo, BABL/C mice; conditions: treatment group after low dose naltrexone
Description: as §1

[4] = tested on: Py13XL malaria (P. falciparum); assay: Prevention of malaria by naltrexone in mice (dosing 7 days before infection); format: in vivo, BABL/C mice; conditions: for more mice died: on 6 d
Description: (§2) • 45 BABL/C mice, six weeks old, were divided into 5 groups, 9 mice for each group. […] The survival was recorded from the first day of infection and infected rate of malaria are recorded from the third day of infection by taking tail vein blood, smearing glass slide, Gimsa staining and checking parasitemia under microscope.

[5] = tested on: Py13XL malaria; assay: as above; format: in vivo, BABL/C mice; conditions: oral, 7 days before infection, on 5 d, 9 mice per group
Description: as §2

[6] = tested on: malaria; assay: Case reports: relapse of malaria in patients given LDN; format: in vivo, human
Description: • A patient with HIV suffering from malaria has had relapses at least twice a year for the last five years.
• A person has suffered on and off from malaria for 40 years. The patient was administered 4.5 mg of LDN per day, as an adjunct treatment with chemotherapy.

[7] = 0.5 mg naltrexone treating group, oral daily 15 days from 2 d post infection, 9 mice per group
[8] = 1 mg naltrexone treating group, oral daily 15 days from 2 d post infection, 9 mice per group
[9] = 0.5 mg naltrexone per mouse, oral, 7 days before infection, 9 mice per group
[10] = 1 mg naltrexone per mouse, oral, 7 days before infection, 9 mice per group

SMILES: c1ccc2c(Cc3c[nH]c4ccccc34)c[nH]c2c1 [DIM]
- IC50 [1]: 1200 nM

SMILES: O=C1CC[C@@]2(O)[C@H]3Cc4ccc(O)c5c4[C@@]2(CCN3CC2CC2)[C@H]1O5 [naltrexone]
- mice still alive for end point [2, 7]: 3 mice
- mice died [2, 7]: 2 mice
- more mice died ([2]; 0.5 mg naltrexone treating group, oral daily 15 days from 2 d post infection, on 6 d, 9 mice per group): 4 mice
- treatment effect compared between dose groups ([2]; 1 mg naltrexone group versus 0.5 mg and 2 mg): best treatment
- mice still alive till end point [2, 8]: 6 mice
- mice died [2, 8]: 0 mice
- more mice died ([2]; 1 mg naltrexone treating group, oral daily 15 days from 2 d post infection, on 6 d, 9 mice per group): 2 mice
- more mice died ([2]; 1 mg naltrexone treating group, oral daily 15 days from 2 d post infection, on 9 d, 9 mice per group): 1 mice
- parasitemia ([2]; 1 mg naltrexone treating group, surviving mice, on 20 d): parasitemia disappeared
- mice died ([2]; 2 mg naltrexone group, oral daily from 2 d post infection, 9 mice per group): 5 mice
- more mice died ([2]; 2 mg naltrexone group, oral daily from 2 d post infection, on 6 d, 9 mice per group): 4 mice
- toxicity to animals ([2]; 2 mg naltrexone, infected mice): shows toxicity
- Total nucleated cell ([3]; control 1.30 ± 0.13, P < 0.01): 4.21 ± 0.75
- Treg cell ([3]; control 4.22 ± 0.64, P < 0.01): 2.15 ± 0.48
- NK cell ([3]; control 7.58 ± 1.59, P < 0.01): 20.39 ± 4.42
- Macrophage ([3]; control 9.18 ± 0.26, P < 0.01): 12.1 ± 0.56
- CD4+ T cell ([3]; control 22.65 ± 3.48, P < 0.01): 34.81 ± 5.78
- CD8+ T cell ([3]; control 35.33 ± 3.62, P < 0.01): 59.63 ± 3.78
- CD3+ T cell ([3]; control 48.90 ± 4.06, P < 0.01): 67.04 ± 4.20
- mice still alive at the end point [4, 9]: 1 mice
- more mice died [4, 9]: 7 mice
- protecting effect compared between dose groups ([4]; 1 mg naltrexone per mouse versus 0.5 mg and 2 mg): best protecting effect
- survival rate ([4]; 1 mg naltrexone per mouse, oral, 7 days before infection): 33.3%
- mice still alive till the end point [4, 10]: 3 mice
- more mice died [4, 10]: 5 mice
- parasitemia ([4]; 1 mg naltrexone per mouse, surviving mice, on 20 d): all infection parasitemia disappeared
- more mice died ([4]; 2 mg naltrexone per mouse, oral, 7 days before infection, 9 mice per group): 5 mice
- mice died ([5]; 0.5 mg naltrexone per mouse): 1 mice
- mice died ([5]; 1 mg naltrexone per mouse): 1 mice
- mice died ([5]; 2 mg naltrexone per mouse): 4 mice
- time without relapse of malaria ([6]; patient with HIV, relapses at least twice a year before, 4.5 mg per day as adjunct treatment for HIV): 24 months
- time without relapse of malaria ([6]; person, malaria on and off for 40 years, 4.5 mg per day, adjunct with chemotherapy): over 24 months
